{"source": "patent US11298314B2", "about": "“Injectable composition for localized fat reduction without pain, edema, and side effects, and method for preparing same” (AMI PHARM CO., LTD., priority 2017, dated 2022)", "key": {"[1]": {"assay": "Formulation stability of PPC injectable preparations: property, transparency, particle size, pH", "description": "The particle size was measured using a nano particle size analyzer (Microtrac Wave, MICROTRACT, USA). […] The transparency was measured using a spectrophotometer (CM-3600d, KONICA MINOLTA, JAPAN). The pH was measured with a pH meter (ST3100, OHAUS, GERMANY), and the isotonicity was measured with an osmotic pressure meter (Vapro 5600, Elitech Group, Tokyo, Japan), and viscosity was analyzed using a viscometer (Digital Viscometer CL-2, CAS, Korea).\nThe washed and sterilized preparation tank was charged with the water for injection (at room temperature), and phosphatidylcholine (PPC) and benzyl alcohol were added thereto, and the mixture was stirred at 200 RPM for 2 hours under the condition of nitrogen pressure, shading and room temperature. After the completion of stirring, the mixture was transferred to an ultra-high pressure homogenizer (Nano Disperser NLM100, Ilshin Autoclave, Korea) with a nitrogen pressure. Ultra-high pressure homogenization (dispersion) was carried out at 12,000 psi for 7 cycles, and the particles were finely pulverized. Then, the pH was adjusted. After filtration through a 0.2 μm filter, the vial was filled and sealed.\nSpecifically, the water for injection was put into the preparation tank which was cleaned and sterilized (room temperature), and sodium hydroxide was added to the water for injection. Then deoxycholic acid and benzyl alcohol were added, stirred and dissolved. Then, phosphatidylcholine was added thereto, and the mixture was stirred at 200 RPM for about 24 hours under shading, sealing, room temperature (25° C.), and nitrogen pressure. After completion of the stirring, the pH was adjusted (if necessary, with additional sodium hydroxide or hydrochloric acid), and it was filtered through a 0.2 μm filter, and filled into the vial and sealed.\nThen glycocholic acid and benzyl alcohol were added, stirred and dissolved. Then, phosphatidylcholine was added thereto, and the mixture was stirred at 200 RPM for about 24 hours under shading, sealing, room temperature (25° C.), and nitrogen pressure. After completion of the stirring, the pH was adjusted (if necessary, with additional sodium hydroxide or 0.001-0.6% of hydrochloric acid), and it was filtered through a 0.2 μm filter, and filled into the vial and sealed.\nThe formulation stability of the PPC injectable compositions solubilized with glycocholic acid (GCA) in Tables 3 and 4 was evaluated immediately after the preparation and 30 days after the preparation (refrigerated storage)."}, "3T3-L1 adipocytes": {"tested_on": "3T3-L1 adipocytes", "assay": "Adipocyte (3T3-L1) reducing effect, MTT assay", "format": "cell-based", "details": "24 to 96 hours, various concentrations", "procedure": "Tests were performed to compare the adipocyte reducing activity of the PPC single composition and the PPC composition solubilized with bile acids. Differentiated 3T3L-1 adipocyte lines were used to observe adipocyte reduction activity, and cell viability was monitored by MTT assay. […] Materials and methods employed in the following experiments are described below. In the following, % of the composition refers to % (w/v).\nThe specific test methods are as follows. […] The cells were washed twice with PBS, treated with MTT reagent (50 μl) and left at 37° C. for 2 hours. After removing the supernatant, MTT formazan crystals were dissolved in DMSO and the absorbance was measured at 540 nm using a microplate reader.\nThe 3T3-L1 adipocyte (ATCC) was cultured in Dulbecco's modified eagle medium (DMEM) (Invitrogen) supplemented with 10% fetal bovine serum, 100 units/ml penicillin and 100 μg/ml streptomycin under the condition of 5% CO2 and 37° C. […] Subsequently, the medium was replaced with DMEM medium containing 1 μg/ml insulin (Sigma), and the culture medium was maintained and changed every 2 to 3 days until the degree of differentiation reaches maximum. If it took more than 7 days, the cells were kept in normal DMEM culture medium until starting the tests. […] After the cells were incubated for 3 hours under the condition of 37° C. and 5% CO2, the MTT solution was removed."}, "paw of the rats": {"tested_on": "paw of the rats", "assay": "Rat paw edema", "format": "in vivo, Sprague Dawley rats", "details": "for degree of edema in words: 2 hours after administration, rat paw; for degree of edema, 1 hour after administration / degree of edema, 2 hours after administration / degree of edema, Immediately after administration: 0.1 ml into rat paw", "procedure": "To evaluate the degree of edema, each test compositions described above were injected into the paw of the rats. Specifically, male Sprague Dawley rats (6 weeks old) were purchased and used after one week of adaptation. The rats (body weight: 170˜200 g) were randomly selected and the thickness of the rat paw were measured with a caliper before the administration of the test compositions. In order to observe the edema, 0.1 ml of PBS and the various test compositions were administered to the paws of the rats. Measurements of the […] were performed by a caliper immediately before the injection, immediately after the injection, and 1 or 2 hours after the injection. In addition, when the thickness was measured, the skin lesion of the injection site was observed by photographing the sole of the paw (using a 4×4 cm scale).\nThe degree of edema was evaluated as 0 to 4 grades."}, "sole of the rat paws": {"tested_on": "sole of the rat paws", "assay": "Measurement of skin lesion (erythema) on rat paw;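 also: grades − to ++++ mean no to extremely severe erythema versus before injection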", "format": "in vivo, Sprague Dawley rats", "method_in_brief": "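Male Sprague Dawley rats (6 weeks, 170–200 g) received 0.1 ml test composition or PBS injected into the paw. Paw thickness measured by caliper before, immediately after, and 1 or 2 h post-injection; sole lesions photographed and graded 0–4.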"}, "[2]": {"tested_on": "tissues of the injected area (rat paw)", "assay": "H&E staining histological test (inflammation) of injected rat paw", "format": "in vivo, Sprague Dawley rats", "procedure": "The tissues of the injected area were dissected, fixed with 10% formalin, and then the specimen was prepared and images were captured using an optical microscope. The degree of inflammation was evaluated as follows."}, "[3]": {"details": "bile acid single composition 1.0% (w/v)"}, "[4]": {"details": "bile acid single composition 2.5% (w/v)"}, "[5]": {"details": "bile acid single composition 5.0% (w/v)"}, "[6]": {"details": "bile acid single composition 7.5% (w/v)"}}, "data": [{"smiles": "C[C@H](CCC(=O)NCCS(=O)(=O)O)[C@H]1CC[C@H]2[C@@H]3[C@@H](O)C[C@@H]4C[C@H](O)CC[C@]4(C)[C@H]3CC[C@]12C", "note": "[TUDCA, 2-[[(4R)-4-[(3R,5S,7S,8R,9S,10S,13R,14S,17R)-3,7-dihydroxy-10,13-dimethyl-2,3,4,5,6,7,8,9,11,12,14,15,16,17-tetradecahydro-1H-cyclopenta[a]phenanthren-17-yl]pentanoyl]amino]ethanesulfonic acid]", "values": [{"measurement": "bile acid/PPC molar ratio below which a substantially stable formulation did not occur", "setting": "[1]; PPC 5.0%", "result": "less than 1.29"}, {"measurement": "bile acid concentration at which stable injectable preparations can be made", "setting": "[1]; based on PPC 5.0%", "result": "≥ 4.0", "unit": "%"}, {"measurement": "adipocyte viability / adipocyte-reducing activity", "setting": "3T3-L1 adipocytes", "result": "inhibits the adipocyte apoptosis and degradation"}, {"measurement": "degree of edema in words", "setting": "paw of the rats; listed as TUCA 1.0%", "result": "Mild"}, {"measurement": "degree of edema in words", "setting": "paw of the rats; listed as TUCA 2.5%", "result": "Mild"}, {"measurement": "degree of edema in words", "setting": "paw of the rats; listed as TUDCA 1.0%", "result": "mild"}, {"measurement": "degree of edema in words", "setting": "paw of the rats; listed as TUDCA 2.5%", "result": "mild"}, {"measurement": "degree of edema in words", "setting": "paw of the rats; listed as TUDCA 5.0%", "result": "moderate"}, {"measurement": "degree of edema in words", "setting": "paw of the rats; listed as TUDCA 7.5%", "result": "Moderate"}, {"measurement": "degree of edema, 1 hour after administration", "setting": "paw of the rats; [3]", "result": "+ (mild edema [+, (the degree of swelling was 1-20% compared to before the injection)])"}, {"measurement": "degree of edema, 2 hours after administration", "setting": "paw of the rats; [3]", "result": "+ (mild edema [+, (the degree of swelling was 1-20% compared to before the injection)])"}, {"measurement": "degree of edema, Immediately after administration", "setting": "paw of the rats; [3]", "result": "++ (moderate edema [++, (the degree of swelling was 20-40% compared to before the injection)])"}, {"measurement": "degree of edema, 1 hour after administration", "setting": "paw of the rats; [4]", "result": "+ (mild edema [+, (the degree of swelling was 1-20% compared to before the injection)])"}, {"measurement": "degree of edema, 2 hours after administration", "setting": "paw of the rats; [4]", "result": "+ (mild edema [+, (the degree of swelling was 1-20% compared to before the injection)])"}, {"measurement": "degree of edema, Immediately after administration", "setting": "paw of the rats; [4]", "result": "++ (moderate edema [++, (the degree of swelling was 20-40% compared to before the injection)])"}, {"measurement": "degree of edema, 1 hour after administration", "setting": "paw of the rats; [5]", "result": "+ (mild edema [+, (the degree of swelling was 1-20% compared to before the injection)])"}, {"measurement": "degree of edema, 2 hours after administration", "setting": "paw of the rats; [5]", "result": "++ (moderate edema [++, (the degree of swelling was 20-40% compared to before the injection)])"}, {"measurement": "degree of edema, Immediately after administration", "setting": "paw of the rats; [5]", "result": "++ (moderate edema [++, (the degree of swelling was 20-40% compared to before the injection)])"}, {"measurement": "degree of edema, 1 hour after administration", "setting": "paw of the rats; [6]", "result": "++ (moderate edema [++, (the degree of swelling was 20-40% compared to before the injection)])"}, {"measurement": "degree of edema, 2 hours after administration", "setting": "paw of the rats; [6]", "result": "++ (moderate edema [++, (the degree of swelling was 20-40% compared to before the injection)])"}, {"measurement": "degree of edema, Immediately after administration", "setting": "paw of the rats; [6]", "result": "++ (moderate edema [++, (the degree of swelling was 20-40% compared to before the injection)])"}, {"measurement": "grade of skin lesion (erythema), 1 hour after administration", "setting": "sole of the rat paws; [3]", "result": "−"}, {"measurement": "grade of skin lesion (erythema), 2 hours after administration", "setting": "sole of the rat paws; [3]", "result": "−"}, {"measurement": "grade of skin lesion (erythema), Immediately after administration", "setting": "sole of the rat paws; [3]", "result": "−"}, {"measurement": "grade of skin lesion (erythema), 1 hour after administration", "setting": "sole of the rat paws; [4]", "result": "−"}, {"measurement": "grade of skin lesion (erythema), 2 hours after administration", "setting": "sole of the rat paws; [4]", "result": "−"}, {"measurement": "grade of skin lesion (erythema), Immediately after administration", "setting": "sole of the rat paws; [4]", "result": "−"}, {"measurement": "grade of skin lesion (erythema), 1 hour after administration", "setting": "sole of the rat paws; [5]", "result": "−"}, {"measurement": "grade of skin lesion (erythema), 2 hours after administration", "setting": "sole of the rat paws; [5]", "result": "−"}, {"measurement": "grade of skin lesion (erythema), Immediately after administration", "setting": "sole of the rat paws; [5]", "result": "−"}, {"measurement": "grade of skin lesion (erythema), 1 hour after administration", "setting": "sole of the rat paws; [6]", "result": "−"}, {"measurement": "grade of skin lesion (erythema), 2 hours after administration", "setting": "sole of the rat paws; [6]", "result": "−"}, {"measurement": "grade of skin lesion (erythema), Immediately after administration", "setting": "sole of the rat paws; [6]", "result": "−"}, {"measurement": "Inflammation (H&E), BA % (w/v) 1.0", "setting": "[2]; bile acid single composition 1.0% (w/v), injected rat paw", "result": "−"}, {"measurement": "Inflammation (H&E), BA % (w/v) 2.5", "setting": "[2]; bile acid single composition 2.5% (w/v), injected rat paw", "result": "−"}, {"measurement": "Inflammation (H&E), BA % (w/v) 5.0", "setting": "[2]; bile acid single composition 5.0% (w/v), injected rat paw", "result": "−"}, {"measurement": "Inflammation (H&E), BA % (w/v) 7.5", "setting": "[2]; bile acid single composition 7.5% (w/v), injected rat paw", "result": "+"}, {"measurement": "degree of inflammation (H&E) in words", "setting": "[2]; rats sacrificed at 3 hours, injected paw", "result": "Mild"}]}]}
